IC50 and EC50 data for 20 compounds are collected here from patent publication US20250163038A1, “CBL-B MODULATORS AND USES THEREOF” (Nimbus Clio, Inc., priority 2021, published 2025).

One may read the IC50 as the concentration at which inhibition is half-maximal. As usually defined, the EC50 is the concentration giving half of the maximal effect.

Assay [1] concerns the target Recombinant human Cbl-b (aa 36-427) (Homo sapiens, UniProt Q13191). As to the kind of experiment: Cbl-b Biochemical Assay (TR-FRET). The following applies: read-out: TR-FRET hCbl-b IC50. (In general: In TR-FRET formats the signal depends on donor and acceptor labels being close together.)
Assay [2] has as its system Jurkat (clone E6-1) cells with NFAT luciferase reporter. Nature of the assay: Jurkat reporter assay (NFAT Luciferase). It is filed as cell-based. The following applies: Homo sapiens; Jurkat NFAT luciferase reporter cells, anti-CD3 stimulation, 6 hr; read-out: Jurkat NFAT EC50. (Reporter assays use an easily measured gene product as a stand-in for the process of interest.)

The target in assay [3] is T1, Recombinant human c-Cbl (aa 47-435) (Homo sapiens, UniProt P22681).
T1 sequence (P22681 47-435): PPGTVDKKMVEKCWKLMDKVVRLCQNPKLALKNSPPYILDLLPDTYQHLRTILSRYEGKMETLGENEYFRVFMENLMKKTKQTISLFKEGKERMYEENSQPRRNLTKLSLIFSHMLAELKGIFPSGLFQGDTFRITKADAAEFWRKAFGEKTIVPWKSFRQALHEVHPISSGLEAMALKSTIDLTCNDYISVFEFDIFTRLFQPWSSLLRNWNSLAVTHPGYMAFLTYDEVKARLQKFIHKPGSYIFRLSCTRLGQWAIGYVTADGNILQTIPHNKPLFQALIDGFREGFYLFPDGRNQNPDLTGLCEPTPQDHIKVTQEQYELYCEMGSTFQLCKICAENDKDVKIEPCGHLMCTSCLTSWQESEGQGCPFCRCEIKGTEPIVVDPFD
As to the kind of experiment: c-Cbl Biochemical Assay (TR-FRET). The following applies: hc-Cbl Biochemical Assay (TR-FRET); read-out: TR-FRET hcCbl IC50.

A value given as a limit tells only on which side of the number the result lay.

Sequence of Recombinant human Cbl-b (aa 36-427) (Q13191 36-427): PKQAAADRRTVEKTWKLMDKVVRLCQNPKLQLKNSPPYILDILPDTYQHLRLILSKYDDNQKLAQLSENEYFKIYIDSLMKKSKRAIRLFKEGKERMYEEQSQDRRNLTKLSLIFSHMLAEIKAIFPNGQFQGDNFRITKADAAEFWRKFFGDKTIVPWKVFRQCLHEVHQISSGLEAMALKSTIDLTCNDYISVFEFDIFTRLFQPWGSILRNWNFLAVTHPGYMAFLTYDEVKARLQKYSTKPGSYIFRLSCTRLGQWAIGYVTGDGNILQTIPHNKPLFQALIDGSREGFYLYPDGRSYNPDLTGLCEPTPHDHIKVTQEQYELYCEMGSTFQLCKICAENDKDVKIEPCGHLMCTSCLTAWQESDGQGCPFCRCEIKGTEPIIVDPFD

As to `Cn1cnnc1-c1cc(F)ccc1-c1cccc(-c2nc3cc(CNCC4(O)CCC4)cc(C4CC4)c3o2)c1` [JG-1, 1-((((7-Cyclopropyl-2-(4′-fluoro-2′-(4-methyl-4H-1,2,4-triazol-3-yl)-[1,1′-biphenyl]-3-yl)benzo[d]oxazol-5-yl)methyl)amino)methyl)cyclobutan-1-ol], the IC50 in assay [1] and in assay [3] was less than 0.2 µM each time. For the same compound, the EC50 in assay [2] is less than 0.2 µM.
Turning to `Cn1cnnc1-c1cc(F)ccc1-c1cccc(-c2nc3cc(CN4CC[C@H](O)C4)cc(C(F)(F)F)c3o2)c1` [AD-2, (S)-1-((2-(4′-Fluoro-2′-(4-methyl-4H-1,2,4-triazol-3-yl)-[1,1′-biphenyl]-3-yl)-7-(trifluoromethyl)benzo[d]oxazol-5-yl)methyl)pyrrolidin-3-ol], the figures for the IC50 in assay [1] and in assay [3] were less than 0.2 µM and 1 to 10 µM, respectively. Further, the EC50 in assay [2] was in the range of 1 to 10 µM.
In the case of `Cn1cnnc1-c1cc(F)ccc1-c1cccc(-c2nc3cc(CN[C@H]4CCC[C@@H]4O)cc(C(F)(F)F)c3[nH]2)c1` [BN-2, (1S,2S)-2-(((2-(4′-Fluoro-2′-(4-methyl-4H-1,2,4-triazol-3-yl)-[1,1′-biphenyl]-3-yl)-7-(trifluoromethyl)-1H-benzo[d]imidazol-5-yl)methyl)amino)cyclopentan-1-ol], the IC50 in assay [1] was less than 0.2 µM; in assay [3] it was 1 to 10 µM. Besides, the EC50 in assay [2] was 0.2 to 1 µM.
As for `Cn1cnnc1-c1cc(F)ccc1-c1cccc(-c2nc3cc(CN[C@@H]4CCC[C@H]4O)cc(C(F)(F)F)c3o2)c1` [Example W-2, (1R,2R)-2-(((2-(4′-Fluoro-2′-(4-methyl-4H-1,2,4-triazol-3-yl)-[1,1′-biphenyl]-3-yl)-7-(trifluoromethyl)benzo[d]oxazol-5-yl)methyl)amino)cyclopentan-1-ol], the IC50 was less than 0.2 µM in assay [1] and 1 to 10 µM in assay [3]. Further, the EC50 in assay [2] was 0.2 to 1 µM.
The like results for `Cc1cc(CN(C)[C@@H]2CCC[C@@H]2O)cc2nc(-c3cccc(-c4ccc(F)cc4-c4nncn4C)c3)oc12` [HY-3, (1S,2R)-2-(((2-(4′-Fluoro-2′-(4-methyl-4H-1,2,4-triazol-3-yl)-[1,1′-biphenyl]-3-yl)-7-methylbenzo[d]oxazol-5-yl)methyl)(methyl)amino)cyclopentan-1-ol] were, in that order, less than 0.2 µM, less than 0.2 µM and 0.2 to 1 µM.
As for `CN(Cc1cc(C(F)(F)F)c2oc(-c3cccc(-c4ccc(F)cc4-c4nncn4C)c3)nc2c1)[C@@H]1CCC[C@@H]1O` [FW-3, (1S,2R)-2-(((2-(4′-Fluoro-2′-(4-methyl-4H-1,2,4-triazol-3-yl)-[1,1′-biphenyl]-3-yl)-7-(trifluoromethyl)benzo[d]oxazol-5-yl)methyl)(methyl)amino)cyclopentan-1-ol], the IC50 in assay [1] and in assay [3] was less than 0.2 µM in each case. The EC50 in assay [2] is less than 0.2 µM.
As for `Cn1cnnc1-c1cc(F)ccc1-c1cc(-c2nc3cc(CO)c(F)c(F)c3o2)nc(C2CC2)c1` [AFX-1, (2-{6-cyclopropyl-4-[4-fluoro-2-(4-methyl-1,2,4-triazol-3-yl)phenyl]pyridin-2-yl}-6,7-difluoro-1,3-benzoxazol-5-yl)methanol], the IC50 in assay [1] and in assay [3] was 0.2 to 1 µM in each case. For the same compound, in assay [2], the EC50 was in the range of 0.2 to 1 µM.
With `Cn1cnnc1-c1cc(F)ccc1-c1cccc(-c2nc3cc(CN4CCC5(CC4)CC5)cc(C(F)(F)F)c3[nH]2)c1` [BU-1, 5-((6-Azaspiro[2.5]octan-6-yl)methyl)-2-(4′-fluoro-2′-(4-methyl-4H-1,2,4-triazol-3-yl)-[1,1′-biphenyl]-3-yl)-7-(trifluoromethyl)-1H-benzo[d]imidazole], the IC50 is less than 0.2 µM in assay [1] and 1 to 10 µM in assay [3]. For the same compound, in assay [2], the EC50 was 0.2 to 1 µM.
With `Cn1cnnc1-c1cc(F)ccc1-c1cc(-c2nc3cc(CNCC(C)(C)O)cc(C(F)(F)F)c3o2)cc(C2CC2)c1` [JL-1, 1-(((2-(5-Cyclopropyl-4′-fluoro-2′-(4-methyl-4H-1,2,4-triazol-3-yl)-[1,1′-biphenyl]-3-yl)-7-(trifluoromethyl)benzo[d]oxazol-5-yl)methyl)amino)-2-methylpropan-2-ol], the half-maximal inhibitory concentration (IC50) in assay [1] and in assay [3] was less than 0.2 µM each time. Besides, the EC50 in assay [2] is less than 0.2 µM.
`COc1cc(CNCC2CC2)cc2nc(-c3cccc(-c4ccc(F)cc4-c4nncn4C)c3)oc12` [FU-1, 1-Cyclopropyl-N-((2-(4′-fluoro-2′-(4-methyl-4H-1,2,4-triazol-3-yl)-[1,1′-biphenyl]-3-yl)-7-methoxybenzo[d]oxazol-5-yl)methyl)methanamine]: the IC50 in assay [1] and in assay [3] was less than 0.2 µM each time. Besides, in assay [2], the EC50 was 0.2 to 1 µM.
Turning to `Cc1cc([C@@H](C)NCC2CCC2)cc2nc(-c3cc(-c4ccc(F)cc4-c4nncn4C)cc(C4CC4)n3)oc12` [AGY-1, (cyclobutylmethyl)[(1R)-1-(2-{6-cyclopropyl-4-[4-fluoro-2-(4-methyl-1,2,4-triazol-3-yl)phenyl]pyridin-2-yl}-7-methyl-1,3-benzoxazol-5-yl)ethyl]amine], the IC50 in assay [1] and in assay [3] was less than 0.2 µM throughout. Further, the EC50 in assay [2] was less than 0.2 µM.
For the compound `Cn1cnnc1-c1cc(F)ccc1-c1cccc(-c2nc3cc(CNC4CC5(CCC5)C4)cc(C(F)(F)F)c3o2)c1` [FM-2, N-((2-(4′-Fluoro-2′-(4-methyl-4H-1,2,4-triazol-3-yl)-[1,1′-biphenyl]-3-yl)-7-(trifluoromethyl)benzo[d]oxazol-5-yl)methyl)spiro[3.3]heptan-2-amine], the IC50 in assay [1] and in assay [3] was less than 0.2 µM in each case. In addition, the EC50 in assay [2] was less than 0.2 µM.
In the case of `CC(c1cc(C(F)(F)F)c2oc(-c3cccc(C4(Cc5nncn5C)COC4)c3)nc2c1)N1CCC2(CC2)C1` (stereo not drawn) [AAB-9, 5-(1-{5-Azaspiro[2.4]heptan-5-yl}ethyl)-2-(3-{3-[(4-methyl-1,2,4-triazol-3-yl)methyl]oxetan-3-yl}phenyl)-7-(trifluoromethyl)-1,3-benzoxazole], the IC50 in assay [1] was less than 0.2 µM; in assay [3], 1 to 10 µM. Besides, in assay [2], the EC50 was 0.2 to 1 µM.
The like results for `Cn1cnnc1-c1cc(F)ccc1-c1cccc(-c2nc3cc(CNC[C@H](O)C(F)(F)F)cc(C(F)(F)F)c3o2)c1` [DM-2, (S)-1,1,1-Trifluoro-3-(((2-(4′-fluoro-2′-(4-methyl-4H-1,2,4-triazol-3-yl)-[1,1′-biphenyl]-3-yl)-7-(trifluoromethyl)benzo[d]oxazol-5-yl)methyl)amino)propan-2-ol] were, in that order, less than 0.2 µM, less than 0.2 µM and less than 0.2 µM.
In the case of `CCC1(CNCc2cc(C(F)(F)F)c3oc(-c4cccc(-c5ccc(F)cc5-c5nncn5C)c4)nc3c2)CCC1` [HP-2, 1-(1-Ethylcyclobutyl)-N-((2-(4′-fluoro-2′-(4-methyl-4H-1,2,4-triazol-3-yl)-[1,1′-biphenyl]-3-yl)-7-(trifluoromethyl)benzo[d]oxazol-5-yl)methyl)methanamine], the IC50 in assay [1] and in assay [3] was less than 0.2 µM in each case. Further, the EC50 in assay [2] was less than 0.2 µM.
On to `CCNc1cc(-c2ccc(F)cc2-c2nncn2C)cc(-c2nc3cc(C(=O)OC)cc(C(F)(F)F)c3o2)n1` [AEK-2, Methyl 2-[6-(ethylamino)-4-[4-fluoro-2-(4-methyl-1,2,4-triazol-3-yl)-phenyl]-pyridin-2-yl]-7-(trifluoromethyl)-1,3-benzoxazole-5-carboxylate], for which the IC50 in assay [1] and in assay [3] was 1 to 10 µM each time. The EC50 in assay [2] fell in the range of 1 to 10 µM.
As to `Cn1cnnc1-c1cc(F)ccc1-c1cccc(-c2nc3cc(CN[C@@H]4CCC[C@]4(C)O)cc(C(F)(F)F)c3o2)c1` [DP-6, (1S,2R)-2-(((2-(4′-Fluoro-2′-(4-methyl-4H-1,2,4-triazol-3-yl)-[1,1′-biphenyl]-3-yl)-7-(trifluoromethyl)benzo[d]oxazol-5-yl)methyl)amino)-1-methylcyclopentan-1-ol], the IC50 in assay [1] and in assay [3] was less than 0.2 µM throughout. For the same compound, the EC50 in assay [2] was less than 0.2 µM.
In the case of `Cn1cnnc1-c1cc(F)ccc1-c1cc(-c2nc3cc(CO)ccc3o2)cc(C2CC2)c1` [AEP-2, {2-[5-cyclopropyl-4′-fluoro-2′-(4-methyl-1,2,4-triazol-3-yl)-[1,1′-biphenyl]-3-yl]-1,3-benzoxazol-5-yl}methanol], the IC50 in assay [1] and in assay [3] was 0.2 to 1 µM in each case. In addition, the half-maximal effective concentration (EC50) in assay [2] was 1 to 10 µM.
Turning to `COc1cc(CO)cc2nc(-c3cc(-c4ccc(F)cc4-c4nncn4C)cc(C4CC4)n3)oc12` [AEX-2, (2-{6-Cyclopropyl-4-[4-fluoro-2-(4-methyl-1,2,4-triazol-3-yl)phenyl]pyridin-2-yl}-7-methoxy-1,3-benzoxazol-5-yl)methanol], the IC50 in assay [1] was in the range of 0.2 to 1 µM; in assay [3], 1 to 10 µM. Also, the EC50 in assay [2] was 1 to 10 µM.
In the case of `Cn1cnnc1-c1cc(F)ccc1-c1cccc(-c2nc3cc(CNC4(CO)COC4)cc(C(F)(F)F)c3o2)c1` [Example Z-2, (3-(((2-(4′-Fluoro-2′-(4-methyl-4H-1,2,4-triazol-3-yl)-[1,1′-biphenyl]-3-yl)-7-(trifluoromethyl)benzo[d]oxazol-5-yl)methyl)amino)oxetan-3-yl)methanol], the values for the IC50 in assay [1] and in assay [3] were less than 0.2 µM and 1 to 10 µM, respectively. In addition, in assay [2], the EC50 was in the range of 1 to 10 µM.
